Measured values published in ChEMBL document CHEMBL5500360, “Discovery of N-(4-((6-(3,5- Dimethoxyphenyl)-9H-purine derivatives as irreversible covalent FGFR inhibitors” (Eur J Med Chem, 2024).
Active and inactive are the calls of the source. No cut-off for these calls is given here.

Experiments:
[1] = Metabolic stability in human liver microsomes assessed as parent compound remaining at 1 uM measured after 15 mins by LC-MS/MS analysis; type: ADME, Microsome; details: read-out: Stability
[2] = Metabolic stability in human liver microsomes assessed as parent compound remaining at 1 uM measured after 5 mins by LC-MS/MS analysis; type: ADME, Microsome; details: read-out: Stability
[3] = Metabolic stability in mouse liver microsomes assessed as intrinsic clearance at 1 uM incubated for 45 mins by LC-MS/MS analysis; type: ADME, Microsome; details: read-out: CLH
[4] = Toxicity in BALB/c athymic nude mouse xenografted with human MDA-MB-231 cells assessed as effect on spleen at 10 to 30 mg/kg, po administered once a day via gavage for 21 days by H and E staining based analysis; type: organism-based; details: in vivo, 504 h, dose 10-30 mg/kg, time 21 day
MDA-MB-231 [5] = test: Cell cycle arrest in human MDA-MB-231 cells assessed as accumulation of G2-M phase cells at 5 uM incubated for 24 hrs by […]PI staining based flow cytometric analysis (reference value: 16.88%); type: functional
MDA-MB-231 [6] = test: Inhibition of cell migration in human MDA-MB-231 cells at 5 uM incubated for 12 hrs by cell scratch assay relative to control; type: functional
MDA-MB-231 [7] = test: Induction of ROS production in human MDA-MB-231 cells incubated for 12 hrs by flow cytometry based confocal microscopic analysis; type: functional, cell-based; details: dose 2.5-10 µM
[8] = Metabolic stability in rat liver microsomes assessed as intrinsic clearance at 1 uM incubated for 45 mins by LC-MS/MS analysis; type: ADME, Microsome; details: read-out: CLH
MDA-MB-231 [9] = test: Cell cycle arrest in human MDA-MB-231 cells assessed as accumulation of G2-M phase cells at 2.5 uM incubated for 24 hrs by […]PI staining based flow cytometric analysis (reference value: 16.88%); type: functional
MDA-MB-231 [10] = test: cells; details: Homo sapiens, MDA-MB-231, 72 h
MDA-MB-231 [11] = test: Cell cycle arrest in human MDA-MB-231 cells assessed as accumulation of G0-G1 phase cells at 5 uM incubated for 24 hrs by […]PI staining based flow cytometric analysis (reference value: 41.83%); type: functional
in vitro = details: human, HUVEC cells
Description: Cytotoxicity against HUVEC cells assessed as inhibition of cell growth incubated for 72 hrs by MTT assay

[12] = Metabolic stability in rat liver microsomes assessed as parent compound remaining at 1 uM measured after 15 mins by LC-MS/MS analysis; type: ADME, Microsome; details: read-out: Stability
MDA-MB-231 [13] = test: Induction of apoptosis in human MDA-MB-231 cells assessed as increase in Bax protein expression incubated for 24 hrs by Western blot analysis; type: functional, cell-based; details: dose 2.5-10 µM
[14] = Metabolic stability in human liver microsomes assessed as half-life at 1 uM incubated for 45 mins by LC-MS/MS analysis; type: ADME, Microsome
MDA-MB-231 [15] = test: Induction of apoptosis in human MDA-MB-231 cells assessed as necrotic cells at 2.5 uM incubated for 24 hrs by Annexin V-FITC/PI staining based flow cytometric analysis (reference value: 0.063 %); type: functional
[16] = Metabolic stability in mouse liver microsomes assessed as parent compound remaining at 1 uM measured after 15 mins by LC-MS/MS analysis; type: ADME, Microsome; details: read-out: Stability
MDA-MB-231 [17] = test: Induction of apoptosis in human MDA-MB-231 cells assessed as increase in cleaved-PARP protein expression incubated for 24 hrs by Western blot analysis; type: functional, cell-based; details: dose 2.5-10 µM
MDA-MB-231 [18] = test: Induction of apoptosis in human MDA-MB-231 cells assessed as viable cells at 10 uM incubated for 24 hrs by Annexin V-FITC/PI staining based flow cytometric analysis (reference value: 99.645%); type: functional; details: read-out: Activity
MDA-MB-231 [19] = test: Induction of apoptosis in human MDA-MB-231 cells assessed as necrotic cells at 5 uM incubated for 24 hrs by Annexin V-FITC/PI staining based flow cytometric analysis (reference value: 0.063 %); type: functional
MDA-MB-231 [20] = test: Antitumor activity against human MDA-MB-231 cells xenografted in female BALB/c athymic nude mouse assessed as tumor growth inhibition at 20 mg/kg, po administered once a day via gavage for 21 days relative to control; type: functional; details: MDA-MB-231, 504 h, time 21 day, read-out: TGI
MDA-MB-231 [21] = test: Induction of apoptosis in human MDA-MB-231 cells assessed as necrotic cells at 10 uM incubated for 24 hrs by Annexin V-FITC/PI staining based flow cytometric analysis (reference value: 0.063 %); type: functional
MDA-MB-231 [22] = test: Cell cycle arrest in human MDA-MB-231 cells assessed as accumulation of G2-M phase cells at 10 uM incubated for 24 hrs by […]PI staining based flow cytometric analysis (reference value: 16.88%); type: functional
[23] = Toxicity in BALB/c athymic nude mouse xenografted with human MDA-MB-231 cells assessed as effect on kidney at 10 to 30 mg/kg, po administered once a day via gavage for 21 days by H and E staining based analysis; type: organism-based; details: in vivo, 504 h, dose 10-30 mg/kg, time 21 day
MDA-MB-231 [24] = test: Effect on FGFR1 protein expression in human MDA-MB-231 cells at 5 to 10 uM incubated for 24 hrs by Western blot analysis; type: functional, cell-based; details: dose 5-10 µM
KYSE-150 cell line = test: cells; details: Homo sapiens, KYSE-150, 72 h
Description: Antiproliferative activity against human KYSE-150 cells assessed as inhibition of cell growth incubated for 72 hrs by MTT assay

MDA-MB-231 [25] = test: Induction of apoptosis in human MDA-MB-231 cells assessed as early apoptotic cells at 2.5 uM incubated for 24 hrs by Annexin V-FITC/PI staining based flow cytometric analysis (reference value: 0.131 %); type: functional
[26] = Toxicity in BALB/c athymic nude mouse xenografted with human MDA-MB-231 cells assessed as effect on liver at 10 to 30 mg/kg, po administered once a day via gavage for 21 days by H and E staining based analysis; type: organism-based; details: in vivo, 504 h, dose 10-30 mg/kg, time 21 day
MDA-MB-231 [27] = test: Induction of apoptosis in human MDA-MB-231 cells assessed as late apoptotic cells at 10 uM incubated for 24 hrs by Annexin V-FITC/PI staining based flow cytometric analysis (reference value: 0.161 %); type: functional
[28] = Metabolic stability in mouse liver microsomes assessed as parent compound remaining at 1 uM measured after 30 mins by LC-MS/MS analysis; type: ADME, Microsome; details: read-out: Stability
MDA-MB-231 [29] = test: Induction of apoptosis in human MDA-MB-231 cells assessed as viable cells at 5 uM incubated for 24 hrs by Annexin V-FITC/PI staining based flow cytometric analysis (reference value: 99.645%); type: functional; details: read-out: Activity
MDA-MB-435 = test: cells; details: Homo sapiens, MDA-MB-435, 72 h
Description: Antiproliferative activity against human MDA-MB-435 cells assessed as inhibition of cell growth incubated for 72 hrs by MTT assay

[30] = Metabolic stability in human liver microsomes assessed as parent compound remaining at 1 uM measured after 45 mins by LC-MS/MS analysis; type: ADME, Microsome; details: read-out: Stability
MDA-MB-231 [31] = test: Induction of apoptosis in human MDA-MB-231 cells assessed as viable cells at 2.5 uM incubated for 24 hrs by Annexin V-FITC/PI staining based flow cytometric analysis (reference value: 99.645%); type: functional; details: read-out: Activity
MDA-MB-231 [32] = test: Effect on ERK protein expression in human MDA-MB-231 cells at 5 to 10 uM incubated for 24 hrs by Western blot analysis; type: functional, cell-based; details: dose 5-10 µM
[33] = target: Fibroblast growth factor receptor 2 (Homo sapiens, UniProt P21802); test: Inhibition of FGFR2 (unknown origin) by ELISA
Chain of Fibroblast growth factor receptor 2 (P21802 whole entry): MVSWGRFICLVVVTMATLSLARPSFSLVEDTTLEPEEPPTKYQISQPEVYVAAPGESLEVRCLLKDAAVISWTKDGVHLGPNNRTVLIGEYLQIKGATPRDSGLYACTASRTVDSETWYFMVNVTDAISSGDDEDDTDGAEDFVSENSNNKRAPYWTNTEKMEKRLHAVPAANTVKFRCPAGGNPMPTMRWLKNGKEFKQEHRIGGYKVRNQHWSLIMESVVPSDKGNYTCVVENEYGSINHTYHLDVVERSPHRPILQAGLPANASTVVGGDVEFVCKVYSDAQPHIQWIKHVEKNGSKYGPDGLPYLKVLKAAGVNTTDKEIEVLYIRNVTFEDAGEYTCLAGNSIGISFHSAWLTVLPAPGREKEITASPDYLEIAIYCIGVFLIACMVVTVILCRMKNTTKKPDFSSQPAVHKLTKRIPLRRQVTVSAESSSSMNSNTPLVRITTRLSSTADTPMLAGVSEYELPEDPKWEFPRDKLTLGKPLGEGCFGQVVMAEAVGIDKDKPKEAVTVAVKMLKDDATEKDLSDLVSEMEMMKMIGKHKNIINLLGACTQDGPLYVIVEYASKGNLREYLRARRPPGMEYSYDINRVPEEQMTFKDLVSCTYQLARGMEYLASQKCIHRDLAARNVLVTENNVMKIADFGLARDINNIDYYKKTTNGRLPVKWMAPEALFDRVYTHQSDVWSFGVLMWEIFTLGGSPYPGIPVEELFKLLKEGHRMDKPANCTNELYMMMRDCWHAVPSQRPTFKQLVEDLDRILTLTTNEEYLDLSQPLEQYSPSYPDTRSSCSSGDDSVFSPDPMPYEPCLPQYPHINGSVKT

Compound: C=CC(=O)Nc1ccc(Cn2cnc3c(-c4cc(OC)cc(OC)c4)ncnc32)cc1
- remaining at 0.25 h, 1 µM [1]: 63.5%
- remaining at 5 min, 1 µM [2]: 85%
- CLint scaled at 1 µM [3]: 424 mL/min/kg
- Activity [4]: Non-Toxic
- Activity (MDA-MB-231 [5]): 10.68%
- inhibition at 5 µM (MDA-MB-231 [6]): 82%
- Activity (MDA-MB-231 [7]): Dose-Dependent Effect
- CLint scaled at 1 µM [8]: 156 mL/min/kg
- Activity (MDA-MB-231 [9]): 14.94%
- IC50 (MDA-MB-231 [10]): 1890 nM
- Activity (MDA-MB-231 [11]): 66.5%
- IC50 at 72 h (in vitro): 82100 nM
- remaining at 0.25 h, 1 µM [12]: 40%
- Activity (MDA-MB-231 [13]): Dose-Dependent Effect
- half-life at 1 µM [14]: 41.4 min
- Activity (MDA-MB-231 [15]): 2.66%
- remaining at 0.25 h, 1 µM [16]: 27.2%
- Activity (MDA-MB-231 [17]): Dose-Dependent Effect
- viability at 10 µM (MDA-MB-231 [18]): 37.2%
- Activity (MDA-MB-231 [19]): 3.01%
- inhibition in vivo at 20 mg/kg (MDA-MB-231 [20]): 64.2%
- Activity (MDA-MB-231 [21]): 1.66%
- Activity (MDA-MB-231 [22]): 15.49%
- Activity [23]: Non-Toxic
- Activity (MDA-MB-231 [24]): inactive
- IC50 (KYSE-150 cell line): 1930 nM
- Activity (MDA-MB-231 [25]): 26.3%
- Activity [26]: Non-Toxic
- Activity (MDA-MB-231 [27]): 15.73%
- remaining at 0.5 h, 1 µM [28]: 8.63%
- viability at 5 µM (MDA-MB-231 [29]): 47.8%
- IC50 (MDA-MB-435): 9170 nM
- remaining at 0.75 h, 1 µM [30]: 33.8%
- viability at 2.5 µM (MDA-MB-231 [31]): 64.9%
- Activity (MDA-MB-231 [32]): inactive
- IC50 [33]: 0.89 nM
